The source of these data is paper PMC5634595, “Properties of halogenated and sulfonated porphyrins relevant for the selection of photosensitizers in anticancer and antimicrobial therapies” (PLoS ONE, 2017).

A short description of series [1]: n-Octanol/PBS partition coefficient, shake-flask. Conditions: modified shake-flask. The format is physicochemical. As to the method:
The n-octanol/PBS partition coefficients were measured following shake-flask method with minor modifications. The photosensitizers were dissolved in n-octanol previously saturated with a solution of PBS. The same volume of PBS saturated with n-octanol was added and mixed on a vortex device and then the phases were separated by centrifugation. Next, the PBS/n-octanol phase was taken and diluted to obtain 0.5% of PBS/n-octanol content in the final solution. This solution was left into the ultrasonic bath. The fluorescence of each solution was measured using Fluorescence Spectrometer LS 55 (Perkin Elmer) and compared with calibration curve to obtain the concentration of the photosensitizer. Partition coefficients were calculated from the ratio coct/cPBS, where coct and cPBS are the concentrations of the porphyrin derivatives in the n-octanol and in the PBS.

Series [2] has as its system 2H11 cells. Put plainly: Dark cytotoxicity, MTT. Conditions: 2H11, 100 μM, 24 h. The class given is cell-based, murine. The protocol: (§1) The studies were performed on human lung adenocarcinoma (A549), murine colon carcinoma (CT26) and murine endothelial/vascular epithelium (2H11) cell lines. A549, CT26 and 2H11 cells were grown in full-strength DMEM with 4.5 g/L glucose, L-glutamine, sodium pyruvate and 3.7 g/L NaHCO3 (BioTech) with addition of 10% fetal bovine serum (BioTech, Poland) and supplemented by antibiotics (penicillin/streptomycin). Before the experiments, the cells were washed with PBS, removed by trypsinization, then re-plated into microplate (or culture flask) with appropriate cells density and maintained in a humidified atmosphere at 37 °C and 5% CO2.
(§2) MTT cytotoxicity assay (which determines the mitochondrial activity), based upon the ability of living cells to reduce (3-(4,5-dimethylthiazol-2-yl)2,5-diphenyl tetrazolium bromide (MTT) into formazan was used to assess photosensitizer-mediated cytotoxicity. Two identical 96-well plates with A549, CT26 or 2H11 cell cultures seeded on 96-plate microplate (10^4 per well) were used for each experiment. When the cells were attached to the plates, PS solution in growth medium (DMSO<0.5%) at concentrations between 0.1 to 100 μM was added to the culture. Treated cultures were incubated for optimal time (estimated experimentally) at 37°C in the dark. […] Data were expressed as mean absorbance value of six samples and standard error of the mean.

Series [3] has as its system CT26 cells. Put plainly: Dark cytotoxicity, MTT. The class given is cell-based, murine. Conditions: CT26, 100 μM, 24 h. As to the method: as §1, §2
The nature of series [4]: Singlet oxygen quantum yield by phosphorescence at 1270 nm. The class given is physicochemical. Conditions: EtOH, phenalenone as reference. As to the method:
Fluorescence emission spectra were recorded from 550 nm to 750 nm with excitation at Soret band (λ≈420 nm). The excitation and emission slits were both set to 8 nm and scanning speed to 50 nm/min. Fluorescence spectra were recorded with a Perkin Elmer Fluorescence Spectrometer LS 55. Determination of fluorescence quantum yields: ΦF of studied photosensitizers was determined using the comparative method according to the equation: ΦF=ΦFStd⋅FAStdn^2/FStdAnStd2, (1) where F and FStd are the areas under the fluorescence emission curves of the sample and the standard, A and AStd are the absorbance of the sample and the standard and n are the refractive indices of the solvent used for the sample and the standard, respectively. Commercially available tetraphenylporphyrin TPP (Std) (ΦF = 0.10 in toluene) was employed as the standard. The absorbance of the solutions at the excitation wavelength was in the range of 0.02. Singlet oxygen quantum yields were determined based on the relative phosphorescence emissions of singlet oxygen generated by a reference and by each one of the porphyrins, using a method described elsewhere. Briefly, a modified Applied Photophysics LKS.60 flash photolysis spectrometer with a Hamamatsu NIR photomultiplier for detection and HP Infinium (500 MHz, 1GSas^-1) or Tektronix DPO 7254 (2.5 GHz, 40GSas^-1) oscilloscopes were used. The adaptation of this spectrometer allowed for the detection of singlet oxygen phosphorescence at room temperature. This emission was detected using a Hamamatsu R5509–42 photomultiplier, cooled to 193 K in a liquid nitrogen chamber. […] The modification of the spectrometer for time-resolved singlet oxygen phosphorescence measurements involved the interposition of a Melles Griot cold mirror (03MCS005), which reflects more than 99% of the incident light in the 400–700 nm range, and of a Scotch RG665 filter. A 600 line diffraction grating was mounted in place of a standard one. […] Solutions of photosensitizers were prepared with matched absorbances close to 0.2 at 355 nm. […]

The nature of series [5]: UV/Vis absorption spectra, molar absorption coefficients. Conditions: EtOH. The class given is physicochemical. As to the method:
All commercial chemicals and reagents were of analytical grade and were purchased from Sigma-Aldrich. UV/Vis absorption spectra were recorded in a Hewlett Packard HP8453 spectrophotometer. Solutions containing samples of photosensitizers were dissolved in the selected solvent in quartz cuvettes. Using measured absorbance for various concentrations of porphyrin in ethanol, the molar absorption coefficients were determined from Beer’s law.

Series [6] in a line: Dynamic light scattering and zeta potential of PS-Pluronic L121 micelles. The class given is physicochemical. Conditions: Pluronic L121-based formulation, DLS, homogeneous distribution. The protocol: Micellar formulations with Pluronic […] were prepared according to a method recently described. The micelles were characterized by Dynamic Light Scattering (DLS) using a Malvern Zetaziser Nano ZS system. The apparent diffusion coefficients of the micelles were obtained from the normalized time correlation function of the scattered electric field, g(1)(τ), using the cumulants analysis. An average value was obtained from repeated measurements for each sample (N = 3).

For orientation: logP means a log measure of how a compound divides between an organic and an aqueous phase. A low value points to lower lipophilicity. `O=S(=O)(O)c1ccc(F)c(-c2c3nc(c(-c4c(F)ccc(S(=O)(=O)O)c4F)c4ccc([nH]4)c(-c4c(F)ccc(S(=O)(=O)O)c4F)c4nc(c(-c5c(F)ccc(S(=O)(=O)O)c5F)c5ccc2[nH]5)C=C4)C=C3)c1F` [F2POH, 5,10,15,20-tetrakis(2,6-difluoro-3-sulfophenyl)porphyrin] came in with a logP in series [1] of -1.74. In series [2], the “Cytotoxicity in the dark” value is on record as 25%. In series [3], the “Cytotoxicity in the dark” value turned out to be 25%. The “Singlet oxygen quantum yield ΦΔ” value in series [4] was determined as 0.71. In series [5], the “Absorption λmax, Qx (0,1)” value is 584 nm; the “Absorption λmax, Qx(0,0)” value is 638 nm; the “Absorption λmax, Qy (0,0)” value was 532 nm; the “Absorption λmax, Qy (0,1)” value turned out to be 508 nm. Further, in series [5] (Soret band), the “Absorption λmax, B(0,0)” value is given as 420 nm. Further, in series [6], the “Particle Diameter (hydrodynamic diameter)” value was “ca. 115 nm”.
